Drawing on ChEMBL document CHEMBL1154324, “Activity of mangosteen xanthones and teleocidin a-2 in death receptor expression enhancement and tumor necrosis factor related apoptosis-inducing ligand assays” (J Nat Prod, 2010), this text covers fold change (FC) for three compounds.

In the experiment the target is Tumor necrosis factor receptor superfamily member 10B (Homo sapiens) (UniProt O14763). The experiment can be described thus: Induction of DR5 promoter activity in SacI gene expressing human DLD1 cells at 10 to 30 uM after 24 hrs by luciferase reporter gene assay relative to control. It is filed as cell-based. To be noted: DLD-1. On the technique in general: A reporter such as luciferase makes a cellular process visible.
Tumor necrosis factor receptor superfamily member 10B (Homo sapiens), sequence (O14763 whole entry): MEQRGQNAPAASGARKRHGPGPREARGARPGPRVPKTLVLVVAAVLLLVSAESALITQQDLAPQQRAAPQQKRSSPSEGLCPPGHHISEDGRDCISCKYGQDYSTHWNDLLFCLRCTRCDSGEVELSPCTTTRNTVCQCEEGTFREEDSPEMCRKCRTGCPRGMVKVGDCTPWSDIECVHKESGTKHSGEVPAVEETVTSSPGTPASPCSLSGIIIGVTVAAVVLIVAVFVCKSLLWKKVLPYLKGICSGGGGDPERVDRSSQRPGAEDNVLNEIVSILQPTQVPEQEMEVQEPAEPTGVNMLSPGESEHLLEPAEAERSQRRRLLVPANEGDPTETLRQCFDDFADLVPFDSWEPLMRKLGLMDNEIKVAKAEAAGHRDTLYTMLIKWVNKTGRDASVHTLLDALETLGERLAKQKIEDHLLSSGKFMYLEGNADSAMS
For the compound `COc1c(O)cc2oc3cc(O)c(CC=C(C)C)c(O)c3c(=O)c2c1CC=C(C)C`, the fold change (FC) was 3.8.

The compound `CC(C)=CCc1c(O)c(CC=C(C)C)c2oc3c(O)ccc(O)c3c(=O)c2c1O` displayed a fold change (FC) of 3.1.

With `COc1c(O)cc2oc3cc4c(c(O)c3c(=O)c2c1CC=C(C)C)C=CC(C)(C)O4`, the fold change (FC) turned out to be 4.
